# In US20160310621A1, “IMAGING PROBES, FORMULATIONS, AND USES THEREOF” (priority 2015, published 2016):
# Entries after “also recorded” stand apart in the source; their conditions may differ.
# System: rat model of arthritis (bone uptake)
# Assay: PET imaging in rat HKMT/IFA model of arthritis
# Type: in vivo
# Source text: Single modality BP imaging probes with ^18F were generated according to the Schemes described in FIGS. 6A-6B and FIG. 7. […] A rat (Lewis rats, 6-12 weeks of age) model of arthritis was generated by subcutaneous injection of heat killed Mycobacterium tuberculosis (strain H37Ra) suspended in incomplete Freund's adjuvant (HKMT/IFA). […] The swelling was easily identifiable by day 16 post injection, but undetectable in the animals on day 7 (FIGS. 12A-12D).
# Rats were given a total of about 500 μCi (about 0.5 nmole) of freshly prepared ^18F-RIS-SFB (single modality BP conjugated imaging probe) by i.v. injection. PET imaging was conducted using a GE eXplore Vista small animal PET system.
structure (smiles),measurement,setting,value
[18F-].[Na+] [Na^18F],time at which increased accumulation in bone is seen by PET,"RA model rats, post induction",~18 days
same,detection of early bone involvement in RA by PET,"early time point (day 7), before clinical signs",fails to detect the earliest signs of bone involvement in RA; also recorded: does not detect the early bone involvement in RA at day 7
